Data on 14 compounds can be found in publication PMC5837613 (Toxicological Sciences, 2017).

For series [1], the system named is hiPSC CM (iCell Cardiomyocytes). Kind of series: Cellular impedance. Format: cell-based, human. The following applies: 3 µM, 2 h exposure; for change in beat amplitude / change in beat rate: significant = >3*SD of vehicle.
The conditions of series [2]: human plasma, Cmax at steady state; ref 1-28 of Supplementary Text; cited from earlier work.
Series [3] has as its target FAK (Homo sapiens, UniProt Q05397). Nature of the series: KinomeScan competition binding assay, FAK.
Series [4] has as its target STK35 (Homo sapiens, UniProt Q8TDR2). Nature of the series: KinomeScan competition binding assay, STK35.
Series [5] concerns the target RPS6KB1 (Homo sapiens, UniProt P23443). Nature of the series: KinomeScan competition binding assay, RPS6KB1.
The test system of series [6] is hiPSC CM (iCell Cardiomyocytes). Nature of the series: Cellular ATP levels. Format: cell-based, human. The conditions noted are these: 3 µM, 24 h after compound addition.

RPS6KB1, sequence (P23443 whole entry): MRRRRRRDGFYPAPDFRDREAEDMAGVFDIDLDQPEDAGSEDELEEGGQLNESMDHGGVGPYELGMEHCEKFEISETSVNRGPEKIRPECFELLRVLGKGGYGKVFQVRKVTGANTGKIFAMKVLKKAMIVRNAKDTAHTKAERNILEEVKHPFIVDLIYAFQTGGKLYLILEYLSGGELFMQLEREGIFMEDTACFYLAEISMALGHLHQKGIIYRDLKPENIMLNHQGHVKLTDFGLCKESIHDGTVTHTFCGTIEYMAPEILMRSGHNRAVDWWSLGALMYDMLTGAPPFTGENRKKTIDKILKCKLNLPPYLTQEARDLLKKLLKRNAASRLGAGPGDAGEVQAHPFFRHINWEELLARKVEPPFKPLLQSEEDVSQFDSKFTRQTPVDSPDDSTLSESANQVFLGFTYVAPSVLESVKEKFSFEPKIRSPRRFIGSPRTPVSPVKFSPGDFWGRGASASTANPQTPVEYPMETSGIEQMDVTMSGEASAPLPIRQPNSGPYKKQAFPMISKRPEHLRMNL
FAK, sequence (Q05397 whole entry): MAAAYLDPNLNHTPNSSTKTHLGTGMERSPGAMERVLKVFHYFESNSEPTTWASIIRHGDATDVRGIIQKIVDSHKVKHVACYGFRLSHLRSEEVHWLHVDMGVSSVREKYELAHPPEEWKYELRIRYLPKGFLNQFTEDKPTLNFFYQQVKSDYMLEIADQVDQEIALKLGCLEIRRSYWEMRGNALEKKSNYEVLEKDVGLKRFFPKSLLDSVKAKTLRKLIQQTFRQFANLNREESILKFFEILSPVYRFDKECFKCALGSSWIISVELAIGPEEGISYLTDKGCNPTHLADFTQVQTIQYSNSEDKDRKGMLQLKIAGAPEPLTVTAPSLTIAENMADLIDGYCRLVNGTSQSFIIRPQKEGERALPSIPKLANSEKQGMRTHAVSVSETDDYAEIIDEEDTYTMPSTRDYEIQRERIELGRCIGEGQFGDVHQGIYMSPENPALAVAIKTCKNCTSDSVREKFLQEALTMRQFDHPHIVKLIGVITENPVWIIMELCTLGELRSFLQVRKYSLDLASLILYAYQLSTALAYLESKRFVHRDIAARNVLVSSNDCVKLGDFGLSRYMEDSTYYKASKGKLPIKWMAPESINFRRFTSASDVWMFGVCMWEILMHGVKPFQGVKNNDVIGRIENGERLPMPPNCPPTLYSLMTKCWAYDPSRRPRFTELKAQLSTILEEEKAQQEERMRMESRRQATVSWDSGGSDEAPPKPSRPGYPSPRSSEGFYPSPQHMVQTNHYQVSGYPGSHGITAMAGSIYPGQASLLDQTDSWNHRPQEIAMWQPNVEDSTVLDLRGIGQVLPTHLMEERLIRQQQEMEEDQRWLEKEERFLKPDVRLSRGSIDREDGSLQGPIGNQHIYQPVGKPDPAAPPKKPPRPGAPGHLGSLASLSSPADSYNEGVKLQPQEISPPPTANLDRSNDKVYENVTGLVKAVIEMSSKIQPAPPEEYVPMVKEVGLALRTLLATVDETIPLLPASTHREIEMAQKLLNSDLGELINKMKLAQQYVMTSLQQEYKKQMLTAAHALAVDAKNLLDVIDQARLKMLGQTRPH
STK35, sequence (Q8TDR2 whole entry): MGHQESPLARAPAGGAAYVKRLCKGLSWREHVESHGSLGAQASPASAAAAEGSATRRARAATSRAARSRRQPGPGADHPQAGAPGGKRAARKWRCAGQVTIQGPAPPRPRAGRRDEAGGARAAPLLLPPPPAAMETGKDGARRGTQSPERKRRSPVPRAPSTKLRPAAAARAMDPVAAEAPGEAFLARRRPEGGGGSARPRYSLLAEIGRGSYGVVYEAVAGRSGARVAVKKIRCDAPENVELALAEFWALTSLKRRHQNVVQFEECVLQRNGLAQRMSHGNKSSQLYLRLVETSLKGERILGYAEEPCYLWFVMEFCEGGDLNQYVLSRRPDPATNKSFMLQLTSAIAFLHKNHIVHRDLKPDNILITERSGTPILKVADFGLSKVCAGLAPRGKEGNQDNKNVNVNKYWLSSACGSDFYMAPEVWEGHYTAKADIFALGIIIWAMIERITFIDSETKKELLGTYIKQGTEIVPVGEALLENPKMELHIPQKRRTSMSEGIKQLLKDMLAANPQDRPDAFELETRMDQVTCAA

Regarding `CCn1c(-c2nonc2N)nc2c(C#CC(C)(C)O)ncc(OC[C@H]3CCCNC3)c21` [GSK-690693], in series [1], the “change in beat amplitude” value was “increased amplitude” and the “change in beat rate” value is reported as “independent of a change in beat rate”.
In the same order, the values of `Cc1[nH]nc2ccc(-c3cncc(OC[C@@H](N)Cc4ccccc4)c3)cc12` [A-674563] are “increased amplitude” and “independent of a change in beat rate”.
Regarding `CNC(=O)c1cc(COc2nnc(Nc3ccc(Cl)cc3)c3ccoc23)ccn1` [Telatinib], the Cmaxss in series [2] was 2000 to 3600 nM. The IC50 in series [3], in series [4] and in series [5] was over 32 µM each time.
Regarding `Cc1cc(Nc2cc(N3CCN(C)CC3)nc(/C=C/c3ccccc3)n2)n[nH]1` [ENMD-2076], the Cmaxss in series [2] is 600 to 1500 nM. In addition, the IC50 (usually the point on the concentration scale where inhibition reaches its midpoint) in series [4] is over 10 µM.
Regarding `Cc1[nH]c(/C=C2\C(=O)Nc3ccc(F)cc32)c(C)c1C(=O)NC[C@H](O)CN1CCOCC1` [SU14813], the “effect on CM beating (beat rate or amplitude)” value (shortened to “effect on CM beating”) in series [1] was “no effect on CM beating”.
Take `OCCn1cc(-c2ccc3c(c2)CC/C3=N\O)c(-c2ccncc2)n1` [GDC-0879]: in series [1], the “effect on CM beating” value is recorded as “induced CM beating effects”, the “change in beat amplitude” value is given as “independent of a change in amplitude” and the “change in beat rate” value is “increased beat rate”.
In the case of `NC(=O)Nc1cc(-c2cccc(F)c2)sc1C(=O)N[C@H]1CCCNC1` [AZD7762], the IC50 in series [3] was 0.1 µM; in series [4] it was over 3.2 µM; in series [5], 3 µM.
For the compound `CN[C@@H]1C[C@H]2O[C@@](C)([C@@H]1OC)n1c3ccccc3c3c4c(c5c6ccccc6n2c5c31)C(=O)NC4` [staurosporine], the “cytotoxicity (decreased cellular ATP levels and decreased cell index)” value in series [6] is given as “induce cell death”.
Consider `Cc1cc2c(F)c(Oc3ncnn4cc(OC[C@@H](C)O)c(C)c34)ccc2[nH]1` [BMS-540215], for which the “effect on CM beating” value in series [1] was “induced CM beating effects”.
Consider `COc1cc2nccc(Oc3ccc(NC(=O)Nc4cc(C)on4)c(Cl)c3)c2cc1OC` [Tivozanib], for which the Cmaxss in series [2] was 200 nM. Further, the IC50 in series [3] was 3.1 µM; in series [4], over 3.2 µM; in series [5], over 3.2 µM.
In the case of `Cc1cnc(Nc2ccc(OCCN3CCCC3)cc2)nc1Nc1cccc(S(=O)(=O)NC(C)(C)C)c1` [TG-101348], the “effect on CM beating” value in series [1] is reported as “no effect on CM beating”.
In the case of `C[C@]12O[C@H](C[C@]1(O)CO)n1c3ccccc3c3c4c(c5c6ccccc6n2c5c31)CNC4=O` [CEP-701], in series [1], the “change in beat amplitude” value is listed as “decreased amplitude” and the “change in beat rate” value is “increased beat rate”.
For the compound `COc1cc2nccc(Oc3ccc(NC(=O)C4(C(=O)Nc5ccc(F)cc5)CC4)cc3)c2cc1OC` [Cabozantinib], in series [2], the Cmaxss was 2800 nM. In addition, the results for the IC50 in series [3], in series [4] and in series [5] were 2.8 µM, 5.7 µM and 13.2 µM, respectively.
For `CO[C@@H]1[C@H](N(C)C(=O)c2ccccc2)C[C@H]2O[C@]1(C)n1c3ccccc3c3c4c(c5c6ccccc6n2c5c31)C(=O)NC4` [PKC-412], in series [1], the “change in beat amplitude” value is listed as “decreased amplitude” and the “change in beat rate” value is “increased beat rate”.
